Columns and labels:
[1] = system: gesunde männliche Probanden; assay: Double-blind 4-way crossover study, 7-day treatment periods, blood pressure and pulse in healthy volunteers; format: in vivo, human; conditions: for Diastolische Blutdruckwerte am 7. Versuchstag, Mittelwert / Systolische Blutdruckwerte am 7. Versuchstag, Mittelwert: mean of 6 Probanden, day 7, lying, 2,5 mg Cilazapril and/or 120 mg Propranolol daily; for Abfall des systolischen und diastolischen Blutdrucks: Monotherapie (2,5 mg Cilazapril or 120 mg Propranolol), day 7, healthy volunteers
Description: […] Proband […], wurde vor Beginn der Studie von jedem Probanden die […], und man […] Kontrollen verbunden war: […] Die Probanden hatten jeweils an den Versuchstagen 0 bis 6 […] zu […] Abend […] noch geraucht. Nach 5-minütiger Ruhepause im Sitzen wurden systolischer und diastolischer Blutdruck und Puls […] die Probanden […], und man […] unter Ueberwachung die Medikation mit 100 ml Leitungswasser und […] Hause. Am […] Probanden […]; die Untersuchungen […] bei 15° erhobenem Oberkörper durchgeführt. Nach jeweils 15-minütiger […] und Puls zu den Zeitpunkten -2, 1, 2, 6, 8 und 24 Stunden gemessen.

[2] = system: Patienten mit einer essentiellen Hypertonie; assay: Crossover study, 3-week treatment periods, sitting blood pressure in hypertensive patients; format: in vivo, human; conditions: 3 weeks treatment, 2,5 mg Cilazapril and/or 120 mg Propranolol; for mittlere Senkung des diastolischen Blutdrucks: 2 Stunden after dosing, sitting, 13 patients; for Ansprechen (Senkung des diastolischen Blutdrucks auf unter 90 mmHg): number of responders
Description: B) Zehn männliche und drei weibliche Patienten mit einer essentiellen Hypertonie im Alter von 43-62 Jahren und mit einem Gewicht von 64-106 kg nahmen an dieser Crossover-Studie teil, die folgende drei Behandlungsabschnitte von jeweils 3 Wochen umfasste, wobei die Abschnitte (1) und (2) je nach Gruppe vertauscht waren: • (1) 2,5 mg Cilazapril • (2) 120 mg Propranolol • (3) 2,5 mg Cilazapril plus 120 mg Propranolol.
Mit Ausnahme von drei Patienten erhielt keiner während mindestens 2 Wochen vor Beginn einer zweiwöchigen Placebo-Behandlung eine blutdrucksenkende Medikation. […] Dann wurden die Patienten wahlweise in zwei Gruppen eingeteilt, wobei die eine Gruppe zuerst mit Cilazapril und die andere zuerst mit Propranolol behandelt wurde. Nach der dreiwöchigen Behandlungsdauer wurde die Medikation in den beiden Gruppen ausgetauscht. Während der Behandlungsabschnitte wurden alle Messungen 2 Stunden nach Verabreichung durchgeführt, wobei der Blutdruck jeweils im Sitzen gemessen wurde.
Als "Ansprechen" auf eine Therapie wurde in dieser Studie eine Senkung des diastolischen Blutdrucks auf unter 90 mmHg defineriert.

[3] = system: Patienten, deren Bluthochdruck mit Captopril behandelt wird; conditions: added to Captopril treatment; Amery et al., Clinical Science 61 (1981); cited from earlier work

Row | SMILES | Diastolische Blutdruckwerte am 7. Versuchstag, Mittelwert ([1]; 1 Std) | Systolische Blutdruckwerte am 7. Versuchstag, Mittelwert ([1]; 1 Std) | Diastolische Blutdruckwerte am 7. Versuchstag, Mittelwert ([1]; 2 Std) | Systolische Blutdruckwerte am 7. Versuchstag, Mittelwert ([1]; 2 Std) | Diastolische Blutdruckwerte am 7. Versuchstag, Mittelwert ([1]; 6 Std) | Systolische Blutdruckwerte am 7. Versuchstag, Mittelwert ([1]; 6 Std) | Diastolische Blutdruckwerte am 7. Versuchstag, Mittelwert ([1]; 8 Std) | Systolische Blutdruckwerte am 7. Versuchstag, Mittelwert ([1]; 8 Std) | Diastolische Blutdruckwerte am 7. Versuchstag, Mittelwert ([1]; 24 Std) | Systolische Blutdruckwerte am 7. Versuchstag, Mittelwert ([1]; 24 Std) | Diastolische Blutdruckwerte am 7. Versuchstag, Mittelwert ([1]; -2 Std) | Systolische Blutdruckwerte am 7. Versuchstag, Mittelwert ([1]; -2 Std) | Abfall des systolischen und diastolischen Blutdrucks [1] | Abnahme der Herzfrequenz ([1]; Monotherapie, 120 mg Propranolol, day 7) | mittlere Senkung des diastolischen Blutdrucks [2] | Ansprechen (Senkung des diastolischen Blutdrucks auf unter 90 mmHg) [2] | Blood pressure effect of additional Propranolol [3] | Zunahme der Herzfrequenz ([1]; Monotherapie, 2,5 mg Cilazapril, day 7)
1 | CC(C)NCC(O)COc1cccc2ccccc12 (stereo not drawn) [Propranolol] | 63 mmHg | 106 mmHg | 67 mmHg | 106 mmHg | 60 mmHg | 110 mmHg | 65 mmHg | 108 mmHg | 76 mmHg | 115 mmHg | 72 mmHg | 111 mmHg | ca. 7 mmHg | ca. 8 Schläge/Minute | 9 mmHg | 2 von 13 Patienten | eine weitere Blutdrucksenkung | 
2 | CCOC(=O)[C@H](CCc1ccccc1)N[C@H]1CCCN2CCC[C@@H](C(=O)O)N2C1=O [Cilazapril, 9(S)-[1-(S)-Aethoxycarbonyl-3-phenylpropylamino]octahydro-10-oxo-6H-pyridazo[1,2-a]-[1,2]diazepin-1(S)-carbonsäure] | 72 mmHg | 109 mmHg | 69 mmHg | 104 mmHg | 63 mmHg | 107 mmHg | 66 mmHg | 108 mmHg | 74 mmHg | 118 mmHg | 73 mmHg | 109 mmHg | ca. 7 mmHg |  | 8 mmHg | 4 von 13 Patienten |  | ca. 5 Schläge/Minute

— patent EP0334164A2, “Antihypertensive combination preparation” (F. HOFFMANN-LA ROCHE AG, priority 1988, dated 1989)
